Laboratory results reported in patent publication US20140004243A1, “SALTY TASTE ENHANCER” (AJINOMOTO CO., INC., priority 2011, published 2014).

How the values were obtained:
human [1] = test: Sensory evaluation of salty taste enhancing activity of compound of the present invention in human; assay type: in vivo; conditions: n=5; for salty taste enhancing rate (fold) middle and after taste: after 2 seconds; for salty taste enhancing rate (fold) initial taste: first 2 seconds
Method: The intensity of a salty taste enhancing activity and the strength of a bitter taste were examined by a quantitative sensory evaluation test for the compound of the present invention (compounds of Examples 11 and 51).
The quantitative sensory evaluation test was performed as follows. Distilled water containing sodium chloride (0.8 g/dl) was mixed with capsazepine as a sample at 0.001 g/dl, or the compound of Example 11 or Example 51 at 0.0001 to 0.001 g/dl, and the level of a salty taste enhancing activity was measured. Distilled water containing 0.8 g/dl of sodium chloride was used as a control, and distilled water containing 0.9 g/dl or 1.0 g/dl of sodium chloride was used as a comparison target. Using a linear measurement method, a straight line showing 1.0-fold (0.8 g/dl), 1.13-fold (0.9 g/dl), 1.25-fold (1.0 g/dl) positions of sodium chloride concentration was drawn and the position showing the strength of the corresponding salty taste was put down thereon. As for the strength of a bitter taste, using the bitter taste of a solution obtained by mixing distilled water containing sodium chloride (0.8 g/dl) with capsazepine at 0.0001 to 0.001 g/dl as the standard, the strength of the bitter taste of the solution obtained by mixing the compound of Example 11 or Example 51 at 0.0001 to 0.001 g/dl was relatively evaluated by comparison. The points were marked based on 0 point for no bitter taste, and 5.0 points for the strength of the bitter taste of a solution containing 0.001 g/dl capsazepine. The test was performed at n=5. […] The “initial taste” means the evaluation of the strength of the salty taste for 2 seconds after placing in the mouth, and the “middle and after taste” means a combination of middle taste and after taste, which is the evaluation of the strength of the salty taste after 2 seconds from placing in the mouth.

human [2] = test: Sensory evaluation of salty taste enhancing activity of capsazepine in human; assay type: in vivo; conditions: for strength of salty taste middle and after taste: after 2 seconds; for strength of salty taste middle and after taste / strength of salty taste initial taste: relative to control; for strength of salty taste initial taste: first 2 seconds
Method: The presence or absence of a salty taste enhancing activity in human was examined by a quantitative sensory evaluation test for capsazepine having an ENaC activation to action.
The quantitative sensory evaluation test was performed as follows. Distilled water containing sodium chloride (0.8 g/dl) was mixed with capsazepine as a sample at 0.0001 to 0.001 g/dl, and the level of a salty taste enhancing activity was measured. Distilled water containing 0.8 g/dl of sodium chloride was used as a control, and distilled water containing 0.9 g/dl or 1.0 g/dl of sodium chloride was used as a comparison target. Using a linear measurement method, a straight line showing 1.0-fold (0.8 g/dl), 1.13-fold (0.9 g/dl), 1.25-fold (1.0 g/dl) positions of sodium chloride concentration was drawn and the position showing the strength of the corresponding salty taste was put down thereon. As for the sensory evaluation, an average of the positions put down by the panelists was determined, and an increase in the level of salty taste relative to the level of salty taste in the control was indicated as a salty taste enhancing rate (fold). […] The “initial taste” means the evaluation of the strength of the salty taste for 2 seconds after placing in the mouth, and the “middle and after taste” means a combination of middle taste and after taste, which is the evaluation of the strength of the salty taste after 2 seconds from placing in the mouth.

[3] = sample 0.0001 g/dl in 0.8 g/dl sodium chloride
[4] = sample 0.0005 g/dl in 0.8 g/dl sodium chloride
[5] = sample 0.001 g/dl in 0.8 g/dl sodium chloride

Structure (SMILES)	salty taste enhancing rate (fold) middle and after taste (human [1]; [3])	salty taste enhancing rate (fold) initial taste (human [1]; [3])	salty taste enhancing rate (fold) middle and after taste (human [1]; [4])	salty taste enhancing rate (fold) initial taste (human [1]; [4])	salty taste enhancing rate (fold) middle and after taste (human [1]; [5])	salty taste enhancing rate (fold) initial taste (human [1]; [5])	strength of salty taste middle and after taste (human [2]; [3])	strength of salty taste initial taste (human [2]; [3])	strength of salty taste middle and after taste (human [2]; [4])	strength of salty taste initial taste (human [2]; [4])	strength of salty taste middle and after taste (human [2]; [5])	strength of salty taste initial taste (human [2]; [5])	salty taste enhancing activity in human (human [2]; summary in words of Table 3)
OC[C@@H](NC(=S)NCCc1ccccc1)c1ccccc1 [Example 51]	1.11 fold	1.09 fold	1.17 fold	1.13 fold	1.17 fold	1.17 fold	–	–	–	–	–	–	–
Oc1cc2c(cc1O)CN(C(=S)NCCc1ccc(Cl)cc1)CCC2 [capsazepine]	1.11 fold	1.11 fold	–	–	–	–	1.05 fold	1.04 fold	1.08 fold	1.11 fold	1.11 fold	1.11 fold	has a salty taste enhancing activity in human
C[C@@H](NC(=S)NCCc1ccccc1)c1ccccc1 [Example 11]	1.10 fold	1.10 fold	1.14 fold	1.15 fold	1.14 fold	1.13 fold	–	–	–	–	–	–	–
